Measured values from PMC6495113, “Sesquiterpenoids and 2-(2-phenylethyl)chromones respectively acting as α-glucosidase and tyrosinase inhibitors from agarwood of an Aquilaria plant” (Journal of Enzyme Inhibition and Medicinal Chemistry, 2019).

Tests used:
α-glucosidase [1] = biological target: T1, α-glucosidase (Saccharomyces cerevisiae, UniProt P53341); experiment: α-Glucosidase inhibitory assay (p-NPG substrate); details: for inhibition at 750 µM: read-out: α-glucosidase inhibitory activity 750 μM (%)
Experimental: The α-glucosidase (G5003, Sigma-Aldrich) was obtained from Saccharomyces cerevisiae and the enzyme inhibitory assay was performed using formerly described method[24] with some modifications. […] The percentage inhibition was calculated using the following equation: % inhibition=[1–(ODcompound–ODblank)/(ODcontrol–ODblank)]×100

tyrosinase [2] = biological target: T2, tyrosinase (Agaricus bisporus, UniProt C7FF04); experiment: Tyrosinase inhibitory assay (L-tyrosine substrate); details: read-out: tyrosinase inhibitory activity 100 μM (%)
Experimental: After 5 min pre-incubation of the mixture at 37 °C, 50 µL of 2 mM L-tyrosine in buffer were added and incubated for additional 20 min at 37 °C. The control wells contained DMSO instead of compound, and the blank wells were added with buffer in place of L-tyrosine. […] The percentage inhibition was calculated using the formula as below: % inhibition=[1–(ODcompound–ODblank)/(ODcontrol–ODblank)]×100

α-glucosidase [3] = biological target: T1, α-glucosidase; experiment: Kinetic analysis of α-glucosidase inhibition (Lineweaver-Burk, secondary plot); type: biochemical
Experimental: The α-glucosidase (G5003, Sigma-Aldrich) was obtained from Saccharomyces cerevisiae and the enzyme inhibitory assay was performed using formerly described method[24] with some modifications. […]. The OD values were measured at 405 nm with microplate reader. Acarbose was used as reference compound. The percentage inhibition was calculated using the following equation: % inhibition=[1–(ODcompound–ODblank)/(ODcontrol–ODblank)]×100
(§1) The data were expressed as double-reciprocal Lineweaver − Burk plot and the inhibition constants (KI and KIS) were obtained from secondary plots of slope and y intercept of lines from Lineweaver-Burk plot against inhibitor[25].

tyrosinase [4] = biological target: T2, tyrosinase; experiment: Kinetic analysis of tyrosinase inhibition (Lineweaver-Burk, secondary re-plots); type: biochemical, mushroom
Experimental: . Briefly, 130 µL of tyrosinase (50 U/mL) solvated in 50 mM phosphate buffer (pH: 6.8) were mixed with 20 µL of 2-fold serial dilutions (from 1 mM to 0.03125 mM) of compounds in DMSO, and transferred into a 96-well plate. After 5 min pre-incubation of the mixture at 37 °C, 50 µL of 2 mM L-tyrosine in buffer were added and incubated for additional 20 min at 37 °C. The control wells contained DMSO instead of compound, and the blank wells were added with buffer in place of L-tyrosine. Kojic acid was used as a positive control. The absorbance was measured at 495 nm using microplate reader. The percentage inhibition was calculated using the formula as below: % inhibition=[1–(ODcompound–ODblank)/(ODcontrol–ODblank)]×100
as §1

T2 sequence (C7FF04 1-392): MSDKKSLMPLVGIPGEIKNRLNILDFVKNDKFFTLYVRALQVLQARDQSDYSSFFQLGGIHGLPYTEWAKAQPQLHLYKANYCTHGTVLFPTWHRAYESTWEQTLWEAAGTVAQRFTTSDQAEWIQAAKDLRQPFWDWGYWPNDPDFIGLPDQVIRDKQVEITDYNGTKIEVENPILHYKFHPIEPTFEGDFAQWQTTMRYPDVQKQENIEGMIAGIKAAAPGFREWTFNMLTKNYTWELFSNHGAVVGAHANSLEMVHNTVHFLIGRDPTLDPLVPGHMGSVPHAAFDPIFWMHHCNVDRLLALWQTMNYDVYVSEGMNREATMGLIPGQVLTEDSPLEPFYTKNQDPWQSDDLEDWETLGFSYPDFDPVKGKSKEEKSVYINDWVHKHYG
T1 sequence (P53341 whole entry): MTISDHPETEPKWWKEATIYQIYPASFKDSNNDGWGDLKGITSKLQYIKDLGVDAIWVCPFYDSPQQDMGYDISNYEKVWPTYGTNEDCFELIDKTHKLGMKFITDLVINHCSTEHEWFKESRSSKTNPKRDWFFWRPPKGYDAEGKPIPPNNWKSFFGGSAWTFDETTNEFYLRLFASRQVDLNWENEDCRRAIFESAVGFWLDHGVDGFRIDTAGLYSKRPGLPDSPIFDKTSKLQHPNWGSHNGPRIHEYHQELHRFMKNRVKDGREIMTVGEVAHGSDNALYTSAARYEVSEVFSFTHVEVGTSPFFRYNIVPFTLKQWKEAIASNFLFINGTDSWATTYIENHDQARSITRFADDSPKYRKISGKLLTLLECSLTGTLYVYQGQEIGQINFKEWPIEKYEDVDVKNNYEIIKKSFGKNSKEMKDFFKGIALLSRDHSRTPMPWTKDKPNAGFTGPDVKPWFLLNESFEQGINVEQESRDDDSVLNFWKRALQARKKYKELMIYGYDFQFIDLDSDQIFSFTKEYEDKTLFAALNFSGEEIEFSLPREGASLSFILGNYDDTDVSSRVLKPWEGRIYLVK

| SMILES | inhibition at 750 µM (α-glucosidase [1]) | inhibition at 100 µM (tyrosinase [2]) | other results |
| --- | --- | --- | --- |
| C=C1C2CCC3(C(CO)CCC3C1(C)C)C2O (centres unmarked) [Compound 1, Agarozizanol A] | 37.4 ± 1.4% | < 30% |  |
| CC1CCC2C(C)(C)C(CO)C3(O)CCC12C3 (centres unmarked) [Compound 2, Agarozizanol B] | 42 ± 2.7% | < 30% |  |
| CC1CCC2C13CCC(C3O)C(C)(O)C2(C)C (centres unmarked) [Compound 3, Agarozizanol C] | < 30% | < 30% |  |
| CC1CCC2C13CCC(C3)C(O)(CO)C2(C)C (centres unmarked) [Compound 4, Agarozizanol D] | 49.9 ± 1.8% | < 30% |  |
| CC1=C2CCC(C)C23CCC(C3)C1(C)CO (centres unmarked) [Compound 5, Agarozizanol E] | 93.4 ± 3.1% | < 30% | type of inhibition of α-glucosidase (α-glucosidase [3]): uncompetitive inhibitors |
| CC1=C2C(O)CC(CO)C23CCC(C3)C1(C)C (centres unmarked) [Compound 6, Agarozizanol F] | < 30% | < 30% |  |
| CC1CCC2C13CCC(C3)C(C)(O)C2(C)C (centres unmarked) [Compound 7, Jinkohol I] | 86.9 ± 0.4% | < 30% |  |
| CC1CCC2C(C)(C)C(CO)C3CCC12C3 (centres unmarked) [Compound 8, Jinkohol II] | 77.3 ± 1% | < 30% |  |
| CC1CCC2C(C)(C)C(C(=O)O)C3CCC12C3 (centres unmarked) [Compound 9, Jinkoholic acid] | 48.9 ± 1.1% | < 30% |  |
| CC1=C2CCC(CO)C23CCC(C3)C1(C)C (centres unmarked) [Compound 10, isokhusenol] | 92.1 ± 3.4% | < 30% |  |
| COc1ccc(CCc2cc(=O)c3cc(OC)c(O)cc3o2)cc1O [Compound 12, 6-methoxy-7-hydroxy-2-[2-(3-hydroxy-4-methoxyphenyl)ethyl]chromone] | < 30% | < 30% |  |
| COc1ccc(CCc2cc(=O)c3cc(O)c(OC)cc3o2)cc1O [Compound 13, 6-hydroxy-7-methoxy-2-[2-(3-hydroxy-4-methoxyphenyl)ethyl]chromone] | < 30% | 53.4 ± 0.7% |  |
| COc1ccc(CCc2cc(=O)c3cc(O)cc(O)c3o2)cc1 [Compound 14, 6,8-dihydroxy-2-[2-(4-methoxyphenyl)ethyl]chromone] | < 30% | 65 ± 1.8% | type of inhibition of tyrosinase (tyrosinase [4]; Lineweaver-Burk plot): mixed type inhibitors; inhibition constant KIS, binding with enzyme-substrate complex (tyrosinase) (tyrosinase [4]; secondary re-plot of y intercept vs. inhibitor): 72.8 µM |
| O=c1cc(CCc2ccccc2)oc2c1C(O)C(O)C(O)C2Cl (centres unmarked) [Compound 15, 8-chloro-2–(2-phenylethyl)-5,6,7-trihydroxy-5,6,7,8-tetrahydrochromone] | < 30% | 34.8 ± 1.4% |  |
| COc1ccc(CCc2cc(=O)c3c(o2)C(Cl)C(O)C(O)C3O)cc1 (centres unmarked) [Compound 16, 8-chloro-2–(2-(4-methoxyphenyl)ethyl)-5,6,7-trihydroxy-5,6,7,8-tetrahydrochromone] | < 30% | < 30% |  |
| C[C@H]1O[C@H](O[C@H]2[C@H](O)[C@@H](O)[C@@H](O[C@H]3[C@H](O)[C@@H](O)C(O)O[C@@H]3CO)O[C@@H]2CO)[C@H](O)[C@@H](O)[C@@H]1N[C@H]1C=C(CO)[C@@H](O)[C@H](O)[C@H]1O (some centres unmarked) [acarbose, reference compound] |  |  | α-glucosidase inhibitory activity 750 μM (%) (α-glucosidase [1]; 750 μM, means ± SD, three individual experiments): 50.7 ± 1.2%; α-glucosidase inhibition rate (α-glucosidase [1]; concentration of 50 µg/mL): 62.06 ± 4.77% |
